Laboratory results as given in patent US6982258B2, “Low-calcemic oxime analogs of 1α,25-dihydroxy vitamin D3” (Cytochroma Inc., priority 2001, dated 2006).

target: T1, CYP24 (Homo sapiens, UniProt Q07973); test: CYP24 enzyme assay (induced HPK1A-ras cells); format: cell-based; details: ketoconazole as control standard
T1 construct: When the HPK1A-ras cells were 80-90% confluent, add 1 μL 10^−5 M 1,25(OH)2D3; endogenous in cells; host or cells: HPK1A-ras cells induced with 10^-8 M 1,25(OH)2D3
T1 sequence (Q07973 36-514): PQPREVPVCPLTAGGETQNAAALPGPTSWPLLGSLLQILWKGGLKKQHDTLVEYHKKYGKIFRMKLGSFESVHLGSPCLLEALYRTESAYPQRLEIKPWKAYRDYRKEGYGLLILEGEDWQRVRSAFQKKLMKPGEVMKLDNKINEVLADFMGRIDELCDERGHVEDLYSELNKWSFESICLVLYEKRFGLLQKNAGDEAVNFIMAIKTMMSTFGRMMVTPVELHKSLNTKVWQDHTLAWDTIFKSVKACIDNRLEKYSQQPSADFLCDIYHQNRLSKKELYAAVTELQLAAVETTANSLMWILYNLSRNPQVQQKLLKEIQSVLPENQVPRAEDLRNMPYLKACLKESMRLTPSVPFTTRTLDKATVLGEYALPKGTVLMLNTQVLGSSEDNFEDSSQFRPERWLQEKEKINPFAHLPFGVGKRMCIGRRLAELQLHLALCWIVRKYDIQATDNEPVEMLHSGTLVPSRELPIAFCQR
Description: CYP24 Enzyme Assay (Induced […] Cells)
• 1,25(OH)2D3 10^−5 M • [^3H]-1,25(OH)2D3 25,000 CPM/μL • HPK1A-ras cells • 48-well plate • Methanol • Dichlorimethane • Saturated KCI:KCI 30 g, H2O400 ml (ii) Procedure: • 1. Induction of HPK1A-ras cells (The day before assay) • When the HPK1A-ras cells were 80-90% confluent, add 1 μL 10^−5 M 1,25(OH)2D3 to 1 mL medium in the plate (final concentration is 10^−8 M). • 2. Preparation of cell suspension • After 18 to 20 hours induction, removed the medium and washed the cell twice with PBS. Then tripsinized the cells from plate, centrifuge (2,000 rpm, 5 min) and suspended cells pellet in DMEM medium+1% BSA. • Counted the cells and adjust cells density to 250,000/150 μL, add 150 μL cell suspension to each well in 48-well plate. (including 3 wells as no cell control, and 3 well cells without drug or inhibitor as control). • 3. Added 25 μL ketoconazole (final concentration 10^−5 M, 10^−6 M, 10^−7 M, 10^−8 M) or drugs into each designated well. Keep the plate in 37° C. for 10 min. • 4. Preparation of substrate • Took certain amount of DMEM+1% BSA medium (25*Well number+200)μL to a tube, added certain amount of ^3H-1,25(OH)2D3 (well number+2) μL and certain amount of 100 mM DPPD (well number/5)μL and mixed them by vortex. • 5. Incubation • Added 25 μL substrate to each well, incubated the plate at 37° C. for 3 hour. • Added 25 μL substrate to counting plate (2 well) as a total count. • 6. Lipid extraction and counting • Added 500 μL methanol to each well to stop the reaction, transfered them to tube • Added 250 μL dichloromethane and vortex. • Added 250 μL dichloromethane and 250 μL saturated KCI, and vortexed. • Centrifuged at 4000 rpm for 5 min. • Transfered 100 μL of aqueous phase (upper phase) to counting plastic counting plate. Added 600 μL of scintillation fluid to each well. Counted the plate in scintillation counter. • 7. Calculation enzyme activity • CPM of cell control after subtraction of CPM of NCC is as 100% enzyme activity. • Enzyme activity=(CPM in test compounds well−CPM in NCC well)/(CPM in Cell control−CPM in NCC well)* 100% • Dilution of Ketoconazole • Stock 10^−2 M
• Dilution of test compounds • Stock 10^−3 M

| SMILES | inhibition of CYP24 activity compared to ketoconazole |
| --- | --- |
| C=C1/C(=C\C=C2/CCC[C@]3(C)C([C@H](C)CCC/C(=N\Oc4ccccc4)C(C)(C)C)=CC[C@@H]23)C[C@@H](O)C[C@@H]1O [I(i)] | significantly greater inhibition of CYP24 than ketoconazole |
| C=C1/C(=C\C=C2/CCC[C@]3(C)C([C@H](C)CCC/C(=N\OC)C(C)(C)C)=CC[C@@H]23)C[C@@H](O)C[C@@H]1O [I(c)] | significantly greater inhibition of CYP24 than ketoconazole |
| C=C1/C(=C\C=C2/CCC[C@]3(C)C([C@H](C)CCC/C(=N\OCC)C(C)(C)C)=CC[C@@H]23)C[C@@H](O)C[C@@H]1O [I(e)] | significantly greater inhibition of CYP24 than ketoconazole |
| C=CCO/N=C(\CCC[C@@H](C)C1=CC[C@H]2/C(=C/C=C3/C[C@@H](O)C[C@H](O)C3=C)CCC[C@]12C)C(C)(C)C [I(g)] | significantly greater inhibition of CYP24 than ketoconazole |
| C=C1/C(=C\C=C2/CCC[C@]3(C)C([C@H](C)CCC/C(=N\O)C(C)(C)C)=CC[C@@H]23)C[C@@H](O)C[C@@H]1O [I(a)] | significantly greater inhibition of CYP24 than ketoconazole |

tested on: not listed separately; test: Calcium excretion (hypercalcemia assay, rat urine); format: in vivo; details: administered orally daily for one week
Description: As a measure of their safety in animals, compound of Formula I(a) was administered orally to rats daily for 1 week at a similar dose (0.5 microgram/Kg body weight) to calcitriol, using a procedure described previously (Posner G. H. et al. J. Med. Chem. 1999, 42, 3425-3435). A graph showing the effect of compound I(a) (indicated as BH 1625(NOH)) on calcium levels in rat urine in comparison to calcitriol (1α,25-Dihydroxy vitamin D3) is shown in FIG. 6.

| SMILES | levels of calcium in the urine |
| --- | --- |
| C=C1/C(=C\C=C2/CCC[C@]3(C)[C@@H]([C@H](C)CCCC(C)(C)O)CC[C@@H]23)C[C@@H](O)C[C@@H]1O [calcitriol, 1α,25-Dihydroxy vitamin D3] | significant increase in calcium levels in the urine |
